In US20220339135A1, “COMPOSITIONS AND METHODS FOR MODULATING AN INFLAMMATORY RESPONSE” (Enzychem Lifesciences Corporation, priority 2019, published 2022):
Where “and” joins values, the source holds several entries; their conditions need not be identical. Identical values can stand only once.

Columns and labels:
[1] = system: total body irradiation by γ-ray; assay: Survival rate and body weight of γ-ray radiated mice; format: in vivo
Method: 11 weeks Balb/c mice (10 males and 10 females) were divided into two groups: 1) radiated group (6.5Gy of TBI by γ-ray) and 2) PLAG (250 mg/kg of PLAG) administrated group with radiation (6.5Gy of TBI by γ-ray) (FIG. 39A). 6.5Gy of TBI was radiated on Day 0 and 250 mpk of PLAG was orally administrated from day 0 to day 30 daily. The survival rate of the mice was recorded daily until day 30.
(§1) 11 weeks Balb/c mice (10 males and 10 females) were divided into four groups: 1) radiated group (6.11Gy of TBI by γ-ray), 2) PLAG (10 mg/kg of PLAG) administrated group with radiation (6.11Gy of TBI by γ-ray), 3) PLAG (50 mg/kg of PLAG) administrated group with radiation (6.11Gy of TBI by γ-ray), and 4) PLAG (250 mg/kg of PLAG) administrated group with radiation (6.11Gy of TBI by γ-ray) (FIG. 40A). 6.11Gy of TBI was radiated on Day 0 and […] of PLAG was orally administrated from day 1 to day 30 daily. The survival rate of the mice, was recorded daily until day 30.
as §1, with “by γ-ray).” for “by γ-ray) (FIG. 40A).”, “Day 0,” for “Day 0”, “daily. Body weight” for “daily. The survival rate”, “the mice” for “the mice,”

5-FU-induced neutropenia = 5-FU-induced neutropenia in mice; format: in vivo; details: for Mean Duration of Neutropenia in Days (±SE, range) / Mean the First Day Neutropenia (ANC <500 cells/μL) (±SE, range): 5-FU 100 mg/kg
Method: Male BALB/c mice (8 weeks of age) were randomly divided into 3 cohorts; control cohort (n=5), EC-18 125 mg/kg-treated cohort (n=5) and EC-18 250 mg/kg (n=5). The mice were intraperitoneally (i.p.) injected once with 100 mg/kg 5-FU to induce neutropenia, as shown in the experimental scheme (FIG. 46A). EC-18 was suspended in phosphate-buffered saline (PBS) and orally administrated at a dose of 125 or 250 mg/kg once a day, starting on the same day of 5-FU injection. The control cohort was administered PBS only during the experiment. The whole blood was collected from the orbital sinuses using EDTA-free capillary tubes (Kimble Chase Life Science and Research Products LLC, FL, USA) and collection tubes containing K3E-K3EDTA (Greiner Bio-One International, Kremsmünster, Austria). The blood cells were counted and classified by complete blood count (CBC) analysis using Mindray BC-5000 auto-hematology analyzer (Shenzhen Mindray Biomedical Electronics, Guangdong Sheng, China).
The results were expressed as the mean±standard deviation (SD). Statistical analysis was performed using a Student's paired t-test and p values <0.05 were considered statistically significant. A […] Log-rank (Mantel-Cox) test was used to compare the duration of neutropenia and time to recovery from neutropenia between control and EC-18-treated cohorts.

[2] = system: citrullinated histone H3 in dHL-60 cells; assay: Histone H3 citrullination, western blot; format: cell-based, human; details: time-dependent
Method: dHL-60 cells were lysed on ice for 30 minutes in RIPA buffer composed of 50 mM Tris-HCl (pH 7.4), 150 mM NaCl, 2 mM EDTA, 1% NP-40, 0.5% sodium deoxycholate, 0.1% SDS, 1 mM phenylmethylsulfonyl fluoride (PMSF), 10 mM sodium fluoride, 2 mM sodium pyrophosphate, 10 mM β-glycerophosphate, 10 mM sodium orthovanadate. The lysates were centrifuged at 13,000 rpm for 20 minutes at 4° C. and protein concentrations were determined using the Bradford assay (Bio-Rad Laboratories). Denatured samples were mixed with a 5×SDS-PAGE loading buffer and heated to 100° C. for 15 min. The samples were separated on the 10% of SDS-PAGE gel and transferred to polyvinylidene difluoride (PVDF) membranes (Merck Millipore Corporation, MA, USA). Membranes were blocked with 5% non-fat milk in PBS (10 mM Tris-HCl, pH7.5, 150 mM NaCl) for 1 h and probed with primary antibodies against histone H3 (citrulline R2+R8+R17) from abcam (USA) and β-actin from cell signaling (USA) for overnight at 4° C. The blots were washed and incubated with appropriate secondary antibodies and visualized using Pierce™ ECL Western Blotting Substrate (Thermo Scientific).

CCCCC/C=C\C/C=C\CCCCCCCC(=O)OC(COC(C)=O)COC(=O)CCCCCCCCCCCCCCC (racemic) [PLAG, 1-palmitoyl-2-linoleoyl-3-acetylglycerol]
number of mice whose body weight loss is more than 10% and 20% ([1]; 6.11Gy TBI, 50mpk and 250 mpk): significantly less number | body weight after radiation ([1]; 6.11Gy TBI, PLAG 10 mg/kg): fluctuating and decreasing bodyweight | survival rate after 30 days of radiation ([1]; 6.11Gy TBI, PLAG 10 mg/kg): 5% | body weight loss ([1]; 6.11Gy TBI, PLAG 50 mg/kg): less than 10% | survival rate after 30 days of radiation ([1]; 6.11Gy TBI, PLAG 50 mg/kg): 40% | body weight loss ([1]; 6.11Gy TBI, PLAG 250 mg/kg): less than 10% | survival rate after 30 days of radiation ([1]; 6.11Gy TBI, PLAG 250 mg/kg): 80% | survival rate relative to the radiated group ([1]; 6.5Gy TBI, PLAG 250 mg/kg): 12 times | survival rate 30 days after radiation ([1]; 6.5Gy TBI, PLAG 250 mg/kg daily day 0-30): 60% | Mean Duration of Severe Neutropenia in Days (±SE, range) (5-FU-induced neutropenia; EC-18 125 mg/kg): 2 (6-7) Days | Mean Number of Days to Recovery - ANC ≥ 500/μL (±SE, range) (5-FU-induced neutropenia; EC-18 125 mg/kg): 7.4 ± 0.55 (7-8) Days | Mean Number of Days to Recovery - ANC ≥ 1000/μL (±SE, range) (5-FU-induced neutropenia; EC-18 125 mg/kg): 8 ± 1.22 (7-10) Days | Number of Individuals of Severe Neutropenia (ANC <100 cells/μL) (5-FU-induced neutropenia; EC-18 125 mg/kg): 1/5 | Mean Duration of Neutropenia in Days (±SE, range) (5-FU-induced neutropenia; EC-18 125 mg/kg): 2.6 ± 0.55 (5-8) Days | Mean the First Day Neutropenia (ANC <500 cells/μL) (±SE, range) (5-FU-induced neutropenia; EC-18 125 mg/kg): 5.8 ± 0.45 (5-6) days | Nadir of ANC (5-FU-induced neutropenia; EC-18 125 mg/kg, 125 mg/kg): 236±4.47 cells/μL and 236 ± 121.57 cells/μL | Mean Duration of Severe Neutropenia in Days (±SE, range) (5-FU-induced neutropenia; EC-18 250 mg/kg): 2 (6-7) Days | Mean Number of Days to Recovery - ANC ≥ 500/μL (±SE, range) (5-FU-induced neutropenia; EC-18 250 mg/kg): 7.6 ± 0.55 (7-8) Days | Mean Number of Days to Recovery - ANC ≥ 1000/μL (±SE, range) (5-FU-induced neutropenia; EC-18 250 mg/kg): 8.8 ± 1.09 (7-10) Days | Number of Individuals of Severe Neutropenia (ANC <100 cells/μL) (5-FU-induced neutropenia; EC-18 250 mg/kg): 1/5 | Mean Duration of Neutropenia in Days (±SE, range) (5-FU-induced neutropenia; EC-18 250 mg/kg): 3.0 ± 0.71 (5-8) Days | Mean the First Day Neutropenia (ANC <500 cells/μL) (±SE, range) (5-FU-induced neutropenia; EC-18 250 mg/kg): 5.8 ± 0.45 (5-6) days | Nadir of ANC (5-FU-induced neutropenia; EC-18 250 mg/kg, 250 mg/kg): 158±11.32 cells/μL | time of recovery to an ANC≥500 or 1000 cells/μL (5-FU-induced neutropenia; EC-18 125 and 250 mg/kg-treated cohorts): significantly reduced | 5-FU-induced reduction of blood monocytes (5-FU-induced neutropenia; EC-18 125 or 250mpk): remarkably mitigated | duration of severe neutropenia (5-FU-induced neutropenia; EC-18, dose not split in text): 2 days | individuals that experienced severe neutropenia (ANC<100 cells/μL) (5-FU-induced neutropenia; both EC-18 125 and 250 mg/kg-treated cohorts): 20% | histone H3 citrullination [2]: induced
